Data: US20250367134A1, “PERIPHERALIZATION OF CENTRALLY-ACTING CANNABINOID-1 RECEPTOR ANTAGONISTS BY NANOPARTICLES FOR THE TREATMENT METABOLIC RELATED CONDITIONS” (Yissum Research Development Company of the Hebrew …, priority 2022, published 2025)
Structures can show the parent of a compound that is named as a salt.

Assays:
[1] = Blood and liver biochemistry and histopathology in DIO mice; type: in vivo; conditions: 1 mg/kg/d ip, 28 days
Procedure: Serum levels of cholesterol, triglycerides, high-density lipoprotein (HDL), low-density lipoprotein (LDL), and alanine aminotransferase (ALT) were determined by using the Cobas C-111 chemistry analyzer (Roche, Switzerland). Serum insulin and leptin levels were measured by ELISAs (Merck, Cat #EZRMI-13K and #E6082-K, respectively). Fasting blood glucose was measured using a glucometer. Liver tissues were extracted as known, and their triglyceride content was determined using the Cobas C-111 chemistry analyzer (Roche, Switzerland).
Five μm paraffin-embedded liver sections from 7 animals per group were stained with H&E staining. Liver images were captured with a Zeiss AxioCam ICc5 color camera mounted on a Zeiss Axio Scope.A1 light microscope and taken from 10 random 40× fields of each animal. Lipid staining was conducted using an Oil Red O staining kit (Cat #ab150678; Abcam) according to the manufacturer's protocol. Briefly, at a […] optimal cutting temperature (O.C.T) (Cat #4583; SciGen, Inc., Gardena, CA, USA), compound-embedded liver sections were placed in propylene glycerol, followed by an Oil Red O solution and hematoxylin staining. Stained sections were photographed as mentioned above and positive red areas were quantified in a blinded manner using Image J software with a minimum of 10 random liver sections per mouse.

[2] = Glucose tolerance (ipGTT) and insulin sensitivity tests (ipIST) in DIO mice; type: in vivo; conditions: 1 mg/kg/d ip, 28 days
Procedure: Mice that underwent overnight fasting were injected with glucose (1.5 g/kg, ip), followed by a tail blood collection at 0, 15, 30, 45, 60, 90, and 120 minutes. The blood glucose levels were determined using a glucometer. The following day, the mice underwent fasting for 6 h before receiving insulin (0.75 U/kg, ip; Eli Lilly); their blood glucose levels were determined at the same intervals as above. The homeostasis model assessment insulin resistance (HOMA-IR) was calculated as ([μU/mL] X fasting plasma glucose [mmol/L]/22.5). The insulin sensitivity index (ISI) was calculated as 1/(glucose×insulin)×1000, with glucose expressed as mg/dL and insulin as mU/L.

[3] = 3 and 10 mg/kg; cited from earlier work
[4] = system: genes associated with fatty-acid β-oxidation (Cpta1, Acadm, Echs1, Hadh, and Acaa2); assay: CB1R antagonism in primary hepatocytes under lipotoxic conditions, qPCR; type: cell-based, mouse; conditions: 1 μM, 24 h, 0.5 mM O:P 2:1
Procedure: Total RNA of mouse livers or primary hepatocytes was extracted using TRIzol (Invitrogen), followed by DNase I treatment (Invitrogen), and then reverse-transcribed using an Iscript cDNA kit (Bio-Rad). Real-time PCR was conducted using iTaq Universal SYBR Green Supermix (Bio-Rad) and the CFX connect ST system (Bio-Rad). The following Mus musculus genes were detected: Cpta1, Acadm, Echs1, Hadh, and Acaa2; all genes were normalized to β-actin.
Primary mouse hepatocytes were isolated by liberase perfusion as previously described. Briefly, the liver of anesthetized mice was first perfused with calcium-free Hanks balanced salt solution supplemented with HEPES and EDTA (HBSS, Biological Industries, Beit HaEmek, Cat #02-018-1A HEPES Cat #03-025-1B), followed by perfused liberase digestion (25 μg/mL liberase in HBSS; Biological Industries, Beit HaEmek, Cat #02-015-1A with 25 mM HEPES). After digestion, the hepatocytes were released by dissociation from the lobes (centrifuged at 50×g for 2 min at 4° C.). The pellet from the first centrifugation of hepatocytes was loaded on a 90% Percoll gradient (Sigma-Aldrich; Cat #GE17-0891-01) and centrifuged at 200×g for 10 min at 4° C. […]

[5] = Chronic treatment of diet-induced obesity (DIO) mice: body weight, body composition, food intake, urine; type: in vivo; conditions: 1 mg/kg/d ip, 28 days
Text: The experimental protocol used was approved by the Institutional Animal Care and Use Committee of the Hebrew University, which is an AAALAC International accredited institute. To generate diet-induced obesity (DIO; body weight>42 g), six-week-old male C57B1/6JHsd mice (Envigo, Israel) were fed either a high-fat diet (HFD; 60% of calories from fat, 20% from protein, and 20% from carbohydrates; Research Diet, D12492), or a standard diet (STD; 14% fat, 24% protein, 62% carbohydrates; NIH-31 rodent diet) for 16 weeks. […] Body-weight and food intake were measured daily. Total body fat and lean masses were determined by EchoMRI100H™ (Echo Medical Systems LLC, Houston, TX, USA). At 24 h, urine was collected one week before euthanasia using mouse metabolic cages (CCS2000 Chiller System, Hatteras Instruments, NC, USA). Mice were euthanized by cervical dislocation under anesthesia, and the kidneys, brain, liver, fat pads, spleen, lungs, and heart were removed and weighed, and samples were either snap-frozen or fixed in buffered 4% formalin. Trunk blood was collected to determine the biochemical parameters.

[6] = Biodistribution of rimonabant in HFD-fed obese mice after chronic 28-day treatment; type: in vivo; conditions: 18 hr following the last injection, 1 mg/kg ip, 28 days
Procedure: The NPs were suspended in 1×PBS (15-450 μg/mL), and the free drug was dissolved in 4% DMSO, 1% Tween 80, and saline (0.1-3.0 mg/mL). The mice were euthanized 1-, 4-, and 24-h post-injection. […] The mice were euthanized 18 h following the last injection. Blood was collected, and mice were perfused with 1×PBS (via the left ventricle until the effluent from the right atrium was clear of blood), and the brain, lungs, liver, kidneys, fat, and spleen were harvested.
Tissues and serum samples were processed as follows: Total proteins were precipitated with ice-cold acetone/Tris buffer (50 mM, pH 8.0). Then, the samples were homogenized in ice-cold methanol/Tris buffer (50 mM, pH 8.0, 1:1) containing AM251 10 μg/mL as an internal standard. […] Rimonabant levels in the samples were determined by liquid chromatography/tandem mass spectrometry (LC-MS/MS).
The analyses were conducted on a TSQ Quantum Access Max triple quadrupole mass spectrometer (Thermo Scientific, San Jose, CA, USA) coupled with an UHPLC system, which included a Dionex Pump and an Accela Autosampler (Thermo Scientific, San Jose, CA, USA). […] Rimonabant was detected in a positive ion mode using electron spray ionization (ESI) and the multiple reaction monitoring (MRM) mode of acquisition. […]

[7] = system: serum protein; conditions: cited from earlier work
[8] = Multi-parameter metabolic assessment (indirect calorimetry) in DIO mice; type: in vivo; conditions: 1 mg/kg/d ip, 28 days
Procedure: The metabolic and activity profiles of the mice were assessed using the Promethion High-Definition Behavioral Phenotyping System (Sable Instruments, Inc., Las Vegas, NV, USA). Data acquisition and instrument control were performed using MetaScreen software version 2.2.18.0, and the obtained raw data were processed using ExpeData version 1.8.4, using an analysis script detailing all aspects of the data transformation. Mice with free access to food and water were subjected to a standard 12 h light/12 h dark cycle, which consisted of a 16 h acclimation period, followed by 24 h of sampling. Respiratory gases were measured by using the GA-3 gas analyzer (Sable Systems, Inc., Las Vegas, NV, USA), using a pull-mode, negative-pressure system. Airflow was measured and controlled by FR-8 (Sable Systems, Inc., Las Vegas, NV, USA), with a set flow rate of 2000 mL/min. Water vapor was continuously measured and its dilution effect on O2 and CO2 was mathematically compensated. The effective mass (eff.Mass) was calculated by ANCOVA analysis. The respiratory quotient (RQ) was calculated as the ratio between CO2 produced to O2 consumed, and the total energy expenditure (TEE) was calculated as VO2×(3.815+1.232×RQ), normalized to the effective body mass, and expressed as kcal/h/kg^eff.Mass. Fat oxidation (FO) was calculated as FO=1.69×VO2−1.69×VCO2 and expressed as g/d/kgeff.Mass. Ambulatory activity and position were monitored simultaneously with the collection of the calorimetry data using XYZ beam arrays with a beam spacing of 0.25 cm.

[9] = 10 mg/kg; cited from earlier work

Cc1c(C(=O)NN2CCCCC2)nn(-c2ccc(Cl)cc2Cl)c1-c1ccc(Cl)cc1 [free rimonabant, N-(piperidin-1-yl)-5-(4-chlorophenyl)-1-(2,4-dichlorophenyl)-4-methyl-1H-pyrazole-3-carboxamide hydrochloride]
HFD-induced fatty liver (liver weight, hepatic triglyceride content, hepatocyte ballooning, fat accumulation, serum ALT levels) [1]: completely reversed
serum leptin levels [1]: significantly reduced
HOMA-IR [2]: reduced
hyperinsulinemia [2]: reduced
insulin sensitivity [2]: improved
obesity-induced glucose intolerance [2]: reversed
despair-like behavior in the Tail Suspension Test [3]: did not induce despair-like behavior
expression levels of genes associated with fatty oxidation [4]: significantly upregulated
body weight (overweightness) [5]: significantly reduced
fat mass (adiposity) [5]: significantly reduced
food intake [5]: without affecting
lean mass [5]: increased
levels of rimonabant in the brain [6]: Comparable low levels
serum protein binding [7]: > 98%
animal's activity profile [8]: without affecting
fat oxidation (FO) [8]: upregulation
oxygen consumption (VO2) [8]: upregulation
total energy expenditure (TEE) [8]: upregulation
depressive-like symptoms in the Forced Swim Test [9]: did not induce depressive-like symptoms
